Test system: rodent lifetime carcinogenesis bioassay, tumor incidence TD50
Assay: carcinogenic potency in animals, long-term in vivo studies, CPDB compilation (AID 1745844)
Settings: inhaled

## C=CC=C
mouse, strain B6C3F1, males, site: liver, lesion: hepatocellular adenoma + hepatocellular carcinoma + neoplastic nodule, dosed 60 weeks, study length 60 weeks
  TD50: 541 mg/kg/day
mouse, strain B6C3F1, males, site: liver, lesion: hepatocellular adenoma + hepatocellular carcinoma + neoplastic nodule, dosed 82 weeks, study length 104 weeks
  TD50: 23.9 mg/kg/day
mouse, strain B6C3F1, males, site: liver, lesion: hepatocellular adenoma + hepatocellular carcinoma, dosed 13 weeks, study length 104 weeks
  TD50: 15.1 mg/kg/day
mouse, strain B6C3F1, males, site: liver, lesion: hepatocellular adenoma + hepatocellular carcinoma, dosed 26 weeks, study length 104 weeks
  TD50: 23.8 mg/kg/day
mouse, strain B6C3F1, males, site: liver, lesion: hepatocellular adenoma + hepatocellular carcinoma, dosed 40 weeks, study length 104 weeks
  TD50: 16.8 mg/kg/day
mouse, strain B6C3F1, males, site: liver, lesion: hepatocellular adenoma + hepatocellular carcinoma, dosed 52 weeks, study length 104 weeks
  TD50: 14.6 mg/kg/day
mouse, strain B6C3F1, males, site: liver, lesion: hepatocellular adenoma + hepatocellular carcinoma, dosed 82 weeks, study length 104 weeks
  TD50: 23.9 mg/kg/day
mouse, strain B6C3F1, males, site: liver, lesion: hepatocellular adenoma, dosed 13 weeks, study length 104 weeks
  TD50: 17.9 mg/kg/day
mouse, strain B6C3F1, males, site: liver, lesion: hepatocellular adenoma, dosed 26 weeks, study length 104 weeks
  TD50: 27.8 mg/kg/day
mouse, strain B6C3F1, males, site: liver, lesion: hepatocellular adenoma, dosed 40 weeks, study length 104 weeks
  TD50: 18 mg/kg/day
mouse, strain B6C3F1, males, site: liver, lesion: hepatocellular adenoma, dosed 52 weeks, study length 104 weeks
  TD50: 15.8 mg/kg/day
mouse, strain B6C3F1, males, site: liver, lesion: hepatocellular adenoma, dosed 82 weeks, study length 104 weeks
  TD50: 34.1 mg/kg/day
mouse, strain B6C3F1, males, site: liver, lesion: hepatocellular carcinoma, dosed 13 weeks, study length 104 weeks
  TD50: 23.4 mg/kg/day
mouse, strain B6C3F1, males, site: liver, lesion: hepatocellular carcinoma, dosed 26 weeks, study length 104 weeks
  TD50: 60 mg/kg/day
mouse, strain B6C3F1, males, site: liver, lesion: hepatocellular carcinoma, dosed 40 weeks, study length 104 weeks
  TD50: 62 mg/kg/day
mouse, strain B6C3F1, males, site: liver, lesion: hepatocellular carcinoma, dosed 52 weeks, study length 104 weeks
  TD50: 47 mg/kg/day
mouse, strain B6C3F1, males, site: liver, lesion: hepatocellular carcinoma, dosed 82 weeks, study length 104 weeks
  TD50: 34.4 mg/kg/day
mouse, strain B6C3F1, males, site: lung, lesion: alveolar/bronchiolar adenoma + alveolar/bronchiolar carcinoma + adenocarcinoma, dosed 13 weeks, study length 104 weeks
  TD50: 8.59 mg/kg/day
mouse, strain B6C3F1, males, site: lung, lesion: alveolar/bronchiolar adenoma + alveolar/bronchiolar carcinoma + adenocarcinoma, dosed 52 weeks, study length 104 weeks
  TD50: 7.17 mg/kg/day
mouse, strain B6C3F1, males, site: lung, lesion: alveolar/bronchiolar adenoma + alveolar/bronchiolar carcinoma + adenocarcinoma, dosed 82 weeks, study length 104 weeks
  TD50: 19.2 mg/kg/day
mouse, strain B6C3F1, males, site: lung, lesion: alveolar/bronchiolar adenoma + alveolar/bronchiolar carcinoma, dosed 13 weeks, study length 104 weeks
  TD50: 8.59 mg/kg/day
mouse, strain B6C3F1, males, site: lung, lesion: alveolar/bronchiolar adenoma + alveolar/bronchiolar carcinoma, dosed 26 weeks, study length 104 weeks
  TD50: 13.4 mg/kg/day
mouse, strain B6C3F1, males, site: lung, lesion: alveolar/bronchiolar adenoma + alveolar/bronchiolar carcinoma, dosed 40 weeks, study length 104 weeks
  TD50: 11 mg/kg/day
mouse, strain B6C3F1, males, site: lung, lesion: alveolar/bronchiolar adenoma + alveolar/bronchiolar carcinoma, dosed 52 weeks, study length 104 weeks
  TD50: 7.25 mg/kg/day
mouse, strain B6C3F1, males, site: lung, lesion: alveolar/bronchiolar adenoma + alveolar/bronchiolar carcinoma, dosed 60 weeks, study length 60 weeks
  TD50: 65.9 mg/kg/day
mouse, strain B6C3F1, males, site: lung, lesion: alveolar/bronchiolar adenoma + alveolar/bronchiolar carcinoma, dosed 82 weeks, study length 104 weeks
  TD50: 19.6 mg/kg/day
mouse, strain B6C3F1, males, site: lung, lesion: alveolar/bronchiolar adenoma, dosed 13 weeks, study length 104 weeks
  TD50: 17.1 mg/kg/day
mouse, strain B6C3F1, males, site: lung, lesion: alveolar/bronchiolar adenoma, dosed 26 weeks, study length 104 weeks
  TD50: 17.3 mg/kg/day
mouse, strain B6C3F1, males, site: lung, lesion: alveolar/bronchiolar adenoma, dosed 40 weeks, study length 104 weeks
  TD50: 18.1 mg/kg/day
mouse, strain B6C3F1, males, site: lung, lesion: alveolar/bronchiolar adenoma, dosed 52 weeks, study length 104 weeks
  TD50: 9.13 mg/kg/day
mouse, strain B6C3F1, males, site: lung, lesion: alveolar/bronchiolar adenoma, dosed 60 weeks, study length 60 weeks
  TD50: 96.9 mg/kg/day
mouse, strain B6C3F1, males, site: lung, lesion: alveolar/bronchiolar adenoma, dosed 82 weeks, study length 104 weeks
  TD50: 33.2 mg/kg/day
mouse, strain B6C3F1, males, site: lung, lesion: alveolar/bronchiolar carcinoma + adenocarcinoma, dosed 13 weeks, study length 104 weeks
  TD50: 14.1 mg/kg/day
mouse, strain B6C3F1, males, site: lung, lesion: alveolar/bronchiolar carcinoma + adenocarcinoma, dosed 52 weeks, study length 104 weeks
  TD50: 13 mg/kg/day
mouse, strain B6C3F1, males, site: lung, lesion: alveolar/bronchiolar carcinoma + adenocarcinoma, dosed 82 weeks, study length 104 weeks
  TD50: 32.4 mg/kg/day
mouse, strain B6C3F1, males, site: lung, lesion: alveolar/bronchiolar carcinoma, dosed 26 weeks, study length 104 weeks
  TD50: 17.8 mg/kg/day
mouse, strain B6C3F1, males, site: lung, lesion: alveolar/bronchiolar carcinoma, dosed 40 weeks, study length 104 weeks
  TD50: 16.3 mg/kg/day
mouse, strain B6C3F1, males, site: lung, lesion: alveolar/bronchiolar carcinoma, dosed 60 weeks, study length 60 weeks
  TD50: 312 mg/kg/day
mouse, strain B6C3F1, males, site: preputial gland, lesion: adenoma + carcinoma + carcinoma, bilateral, dosed 13 weeks, study length 104 weeks
  TD50: 119 mg/kg/day
mouse, strain B6C3F1, males, site: preputial gland, lesion: adenoma + carcinoma + carcinoma, bilateral, dosed 26 weeks, study length 104 weeks
  TD50: 27.1 mg/kg/day
mouse, strain B6C3F1, males, site: preputial gland, lesion: adenoma + carcinoma + carcinoma, bilateral, dosed 40 weeks, study length 104 weeks
  TD50: 351 mg/kg/day
mouse, strain B6C3F1, males, site: preputial gland, lesion: carcinoma + carcinoma, bilateral, dosed 13 weeks, study length 104 weeks
  TD50: 167 mg/kg/day
mouse, strain B6C3F1, males, site: preputial gland, lesion: carcinoma + carcinoma, bilateral, dosed 26 weeks, study length 104 weeks
  TD50: 27.1 mg/kg/day
mouse, strain B6C3F1, males, site: preputial gland, lesion: carcinoma + carcinoma, bilateral, dosed 40 weeks, study length 104 weeks
  TD50: 351 mg/kg/day
mouse, strain B6C3F1, males, site: preputial gland, lesion: carcinoma + carcinoma, bilateral, dosed 52 weeks, study length 104 weeks
  TD50: 20.1 mg/kg/day
mouse, strain B6C3F1, males, site: preputial gland, lesion: carcinoma, NOS + squamous-cell carcinoma, dosed 60 weeks, study length 60 weeks
  TD50: 403 mg/kg/day
mouse, strain B6C3F1, males, site: preputial gland, lesion: carcinoma, dosed 82 weeks, study length 104 weeks
  TD50: 384 mg/kg/day
mouse, strain B6C3F1, males, site: preputial gland, lesion: squamous-cell carcinoma, dosed 60 weeks, study length 60 weeks
  TD50: 538 mg/kg/day
mouse, strain B6C3F1, males, site: subcutaneous tissue, lesion: hemangiosarcoma, dosed 82 weeks, study length 104 weeks
  TD50: 666 mg/kg/day
rat, strain Charles River CD (Sprague-Dawley), females, site: mammary gland, lesion: benign tumor, dosed 105 weeks, study length 105 weeks
  TD50: 182 mg/kg/day
rat, strain Charles River CD (Sprague-Dawley), females, site: mammary gland, lesion: malignant tumor, dosed 105 weeks, study length 105 weeks
  TD50: 7720 mg/kg/day
rat, strain Charles River CD (Sprague-Dawley), females, site: mammary gland, lesion: several types, types named in the paper, dosed 105 weeks, study length 105 weeks
  TD50: 133 mg/kg/day
rat, strain Charles River CD (Sprague-Dawley), females, site: thyroid gland, lesion: follicular-cell adenoma, dosed 105 weeks, study length 105 weeks
  TD50: 8270 mg/kg/day
rat, strain Charles River CD (Sprague-Dawley), males, site: any site (literature study), lesion: one or several types, types not named, dosed 111 weeks, study length 111 weeks
  TD50: 1470 mg/kg/day
rat, strain Charles River CD (Sprague-Dawley), males, site: pancreas, lesion: exocrine adenoma, dosed 111 weeks, study length 111 weeks
  TD50: 9310 mg/kg/day
rat, strain Charles River CD (Sprague-Dawley), males, site: testis, lesion: Leydig-cell tumor, dosed 111 weeks, study length 111 weeks
  TD50: 7550 mg/kg/day
